Results: PMC4717575, “Characterization of a cold-active and salt tolerant esterase identified by functional screening of Arctic metagenomic libraries” (BMC Biochemistry, 2016)

System: T1, Lip3
T1 construct: catalytic triad Ser150, Asp207, His267; primers encode N-terminal MNNYIID and C-terminal CLKSLL before the His tag
Assay: p-nitrophenol release at […] nm, Lineweaver-Burk
Type: biochemical, uncultured bacterium
Settings: 0.1 M Tris-HCl pH 8.0, 35 °C, 3 % acetonitrile

| SMILES | K M (M.10^-3) |
| --- | --- |
| CCCCCCCC(=O)Oc1ccc([N+](=O)[O-])cc1 [pNP-octanoate] | 0.36 ± 0.04 M∙10^−3 |
| CC(=O)Oc1ccc([N+](=O)[O-])cc1 [pNP-acetate] | 2.38 ± 0.56 M∙10^−3 |
| CCCC(=O)Oc1ccc([N+](=O)[O-])cc1 [pNP-butanoate] | 1.05 ± 0.16 M∙10^−3 |
| CCCCC(=O)Oc1ccc([N+](=O)[O-])cc1 [pNP-pentanoate] | 1.52 ± 0.20 M∙10^−3 |
| CCCCCCCCCC(=O)Oc1ccc([N+](=O)[O-])cc1 [pNP-decanoate] | 1.03 ± 0.12 M∙10^−3 |
